Laboratory results published in US7619089B2, “Derivatives of N-heterocyclylmethylbenzamides, preparation method thereof and application of same in therapeutics” (Sanofi-Aventis, priority 2003, dated 2009).
Counter-ions that a name gives are not always drawn. Values belong to the compound of their own block, whether it stands above or below them.

How the values were obtained:
[1] = target: T1, native human transporter glyt1 (Homo sapiens, UniProt P48067); assay: Transport of glycine ([14C]glycine capture) in SK-N-MC cells expressing the native human transporter glyt1; format: cell-based; settings: 10 μM [14C]glycine, 10 min at 37° C., pH 7.4, read-out: IC50, concentration which reduces by 50% the specific capture of glycine
T1 construct: expressing the native human transporter glyt1; endogenous in cells; host or cells: SK-N-MC cells (human neuroepithelial cells)
T1 sequence (P48067 1-706): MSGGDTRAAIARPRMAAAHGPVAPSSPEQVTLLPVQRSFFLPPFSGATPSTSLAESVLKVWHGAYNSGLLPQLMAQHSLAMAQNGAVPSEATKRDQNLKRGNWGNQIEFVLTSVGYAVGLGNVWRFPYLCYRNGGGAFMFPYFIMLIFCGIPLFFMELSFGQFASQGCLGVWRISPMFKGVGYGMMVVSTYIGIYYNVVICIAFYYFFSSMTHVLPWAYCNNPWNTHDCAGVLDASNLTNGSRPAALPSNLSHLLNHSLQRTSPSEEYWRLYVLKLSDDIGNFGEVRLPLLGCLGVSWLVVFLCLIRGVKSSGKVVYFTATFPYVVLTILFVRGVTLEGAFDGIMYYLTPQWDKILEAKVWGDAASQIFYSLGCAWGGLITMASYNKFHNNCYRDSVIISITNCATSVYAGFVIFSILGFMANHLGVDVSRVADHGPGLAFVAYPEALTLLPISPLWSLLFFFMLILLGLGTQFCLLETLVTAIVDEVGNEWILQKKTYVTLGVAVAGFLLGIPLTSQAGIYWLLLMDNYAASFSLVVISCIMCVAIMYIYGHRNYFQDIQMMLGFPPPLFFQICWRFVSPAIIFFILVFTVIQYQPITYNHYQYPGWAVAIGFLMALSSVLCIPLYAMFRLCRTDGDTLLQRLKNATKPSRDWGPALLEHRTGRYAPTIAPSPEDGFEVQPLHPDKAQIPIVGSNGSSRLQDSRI
Experimental: Study of the Transport of Glycine in SK-N-MC Cells Expressing the Native Human Transporter Glyt1.
The capture of [^14C]glycine is studied in SK-N-MC cells (human neuroepithelial cells) expressing the native human transporter glyt1 by measuring the radioactivity incorporated in the presence or in the absence of the test compound. The cells are cultured in a monolayer for 48 h in plates pretreated with fibronectin at 0.02%. On the day of the experiment, the culture medium is removed and the cells are washed with a Krebs-HEPES ([4-(2-hydroxyethyl)piperazine]1-ethanesulfonic acid) buffer at pH 7.4. After a preincubation of 10 min at 37° C. in the presence either of buffer (control batch), or of test compound at various concentrations, or of 10 mM glycine (determination of the nonspecific capture), 10 μM [^14C]glycine (specific activity 112 mCi/mmol) are then added. The incubation is continued for 10 min at 37° C., and the reaction is stopped by 2 washes with a Krebs-HEPES buffer at pH 7.4. The radioactivity incorporated by the cells is then estimated after adding 100 μl of liquid scintillant and stirring for 1 h. The counting is performed on a Microbeta Tri-lux™ counter. The efficacy of the compound is determined by the IC50, the concentration of the compound which reduces by 50% the specific capture of glycine, defined by the difference in radioactivity incorporated by the control batch and the batch which received the glycine at 10 mM.

transporter glyt2 = target: T2, transporter glyt2 (Mus musculus, UniProt Q761V0); assay: Transport of glycine ([14C]glycine capture) in mouse spinal cord homogenate; format: biochemical; settings: 10 μM [14C]glycine, 10 min at 25° C., pH 7.4, read-out: IC50, concentration reducing by 50% the specific capture of glycine
T2 construct: from tissue; host or cells: mouse spinal cord homogenate (Iffa Crédo OF1 male mice)
T2 sequence (Q761V0 1-799): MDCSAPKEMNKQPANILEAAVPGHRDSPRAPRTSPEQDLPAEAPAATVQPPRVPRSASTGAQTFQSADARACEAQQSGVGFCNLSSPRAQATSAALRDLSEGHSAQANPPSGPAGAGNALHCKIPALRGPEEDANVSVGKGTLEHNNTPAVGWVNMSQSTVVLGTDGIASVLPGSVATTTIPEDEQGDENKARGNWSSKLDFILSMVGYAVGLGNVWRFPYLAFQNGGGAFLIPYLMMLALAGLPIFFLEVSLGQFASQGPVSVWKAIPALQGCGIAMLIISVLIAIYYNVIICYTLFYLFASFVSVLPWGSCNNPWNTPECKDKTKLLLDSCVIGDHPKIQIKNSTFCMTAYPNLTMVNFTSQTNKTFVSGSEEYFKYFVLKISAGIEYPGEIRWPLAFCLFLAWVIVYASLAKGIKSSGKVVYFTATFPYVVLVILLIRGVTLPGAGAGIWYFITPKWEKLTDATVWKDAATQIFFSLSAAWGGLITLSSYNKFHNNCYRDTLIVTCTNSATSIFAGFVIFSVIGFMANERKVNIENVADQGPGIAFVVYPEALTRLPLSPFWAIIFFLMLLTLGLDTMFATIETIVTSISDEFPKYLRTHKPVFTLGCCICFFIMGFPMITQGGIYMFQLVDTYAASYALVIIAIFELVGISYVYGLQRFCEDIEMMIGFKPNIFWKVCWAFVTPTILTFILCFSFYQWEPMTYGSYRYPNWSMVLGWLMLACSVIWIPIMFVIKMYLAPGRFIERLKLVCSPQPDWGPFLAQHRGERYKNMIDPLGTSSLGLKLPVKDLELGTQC
Source text: Study of the Transport of Glycine in Mouse Spinal Cord Homogenate
The capture of [^14C]glycine by the transporter glyt2 is studied in mouse spinal cord homogenate by measuring the radioactivity incorporated in the presence or in the absence of the compound to be studied.
After the animals have been humanely killed (Iffa Crédo OF1 male mice weighing 20 to 25 g on the day of the experiment), the spinal cord of each animal is rapidly removed, weighed and stored on ice. The samples are homogenized in a Krebs-HEPES ([4-(2-hydroxyethyl)piperazine]1-ethanesulfonic acid) buffer, pH 7.4, at a rate of 25 ml/g of tissue.
50 μl of homogenate are preincubated for 10 min at 25° C. in the presence of Krebs-HEPES buffer, pH 7.4 and of compound to be studied at various concentrations, or of 10 mM glycine in order to determine the nonspecific capture. The [^14C]glycine (specific activity=112 mCi/mmol) is then added for 10 min at 25° C. at the final concentration of 10 μM. The reaction is stopped by filtration under vacuum and the radioactivity is estimated by solid scintillation by counting on a Microbeta Tri-lux™ counter.
The efficacy of the compound is determined by the concentration IC50 capable of reducing by 50% the specific capture of glycine, defined by the difference in radioactivity incorporated by the control batch and the batch which received the 10 mM glycine.

Compound: O=C(NC(c1ccccc1)C1CC2CCN1CC2)c1c(Cl)ccc(C(F)(F)F)c1Cl (stereo not drawn) [Compound No. 4, threo-2,6-Dichloro-N-[(1-azabicyclo[2.2.2]oct-2-yl)phenylmethyl]-3-trifluoromethylbenzamide hydrochloride 1:1]
- IC50 [1]: 4 nM

- IC50 [1]: 17 nM
Compound: O=C(NC(c1ccccc1)C1CC2CCN1CC2)c1cccc(C(F)(F)F)c1Cl (stereo not drawn) [Compound No. 3, threo-2-Chloro-N-[(1-azabicyclo[2.2.2]oct-2-yl)phenyl-methyl]-3-trifluoromethylbenzamide hydrochloride 1:1]

Compound: O=C(N[C@@H](c1ccccc1)[C@@H]1CC2CCN1CC2)c1c(Cl)ccc(C(F)(F)F)c1Cl [Compound No. 17]
- IC50 (transporter glyt2): 690 nM
- IC50 [1]: 1 nM

Compound: O=C(NC(c1ccc(F)cc1)C1CC2CCN1CC2)c1c(Cl)ccc(C(F)(F)F)c1Cl (stereo not drawn) [Compound No. 26, threo-N-[1-Azabicyclo[2.2.2]oct-2-yl(4-fluorophenyl)-methyl]-2,6-dichloro-3-(trifluoromethyl)benzamide hydrochloride 1:1]
- IC50 [1]: 70 nM

Compound: C=CC1CN2CCC1CC2C(NC(=O)c1cccc(C(F)(F)F)c1Cl)c1ccnc2ccccc12 [Compound No. 14, 2-Chloro-N-(8α,9S)cinchonan-9-yl)-3-trifluoromethyl-benzamide hydrochloride 2:1]
- IC50 [1]: 70 nM
